Assay results published in a compilation of properties of binary mixtures (doi:10.1007/s11426-012-4655-1).

Assay: xn = mol fraction of the nth substance listed
Details: 101 kPa

CCCCCC[n+]1ccn(C)c1.F[P-](F)(F)(F)(F)F + CCCCCC[n+]1ccn(C)c1.[Cl-]
Details	electrical conductivity [S/m]	viscosity [mPa·s]
303 K, x2 = 0	0.0747	–
303 K, x2 = 0.2	0.0399	–
303 K, x2 = 0.4	0.0205	–
303 K, x2 = 0.6	0.0104	–
303 K, x2 = 0.8	0.0054	–
303.15 K, x2 = 0	–	500
308 K, x2 = 0	0.0993	–
308 K, x2 = 0.2	0.0556	–
308 K, x2 = 0.6	0.0158	–
308 K, x2 = 0.8	0.0086	–
308.15 K, x2 = 0.2	–	680
308.15 K, x2 = 0.4	–	1238
313 K, x2 = 0.2	0.0751	–
313 K, x2 = 0.6	0.0235	–
313 K, x2 = 0.8	0.0133	–
313.15 K, x2 = 0	–	273
313.15 K, x2 = 0.2	–	490
313.15 K, x2 = 0.4	–	850
313.15 K, x2 = 0.6	–	1501
318 K, x2 = 0	0.166	–
318 K, x2 = 0.2	0.1	–
318 K, x2 = 0.4	0.0584	–
318 K, x2 = 0.8	0.0199	–
318.15 K, x2 = 0	–	208
318.15 K, x2 = 0.2	–	360
318.15 K, x2 = 0.6	–	1014
323 K, x2 = 0	0.21	–
323 K, x2 = 0.2	0.131	–
323 K, x2 = 0.4	0.0793	–
323 K, x2 = 0.6	0.0476	–
323 K, x2 = 0.8	0.0291	–
323.15 K, x2 = 0	–	162
323.15 K, x2 = 0.2	–	268
323.15 K, x2 = 0.4	–	430
323.15 K, x2 = 0.8	–	1154
328 K, x2 = 0.2	0.166	–
328 K, x2 = 0.4	0.105	–
328 K, x2 = 0.6	0.0648	–
328.15 K, x2 = 0	–	128
328.15 K, x2 = 0.4	–	322
328.15 K, x2 = 0.6	–	500
328.15 K, x2 = 0.8	–	790
333 K, x2 = 0	0.319	–
333 K, x2 = 0.2	0.21	–
333 K, x2 = 0.4	0.137	–
333 K, x2 = 0.6	0.0875	–
333 K, x2 = 0.8	0.0582	–
333.15 K, x2 = 0	–	102
333.15 K, x2 = 0.2	–	159
333.15 K, x2 = 0.4	–	242
333.15 K, x2 = 0.6	–	370
333.15 K, x2 = 0.8	–	550

CCCCCCCCn1cc[n+](C)c1.[Cl-] + CCCCCCCCn1cc[n+](C)c1.F[B-](F)(F)F
x1 = 1
Details	electrical conductivity [S/m]	viscosity [mPa·s]
303 K	0.0021	–
308 K	0.0035	–
318 K	0.0086	–
323 K	0.0129	–
323.15 K	–	2043
328 K	0.0187	–
333 K	0.0266	–
333.15 K	–	930

CCCCCCCCn1cc[n+](C)c1.F[B-](F)(F)F + CCCCCCCCn1cc[n+](C)c1.[Cl-]
Details	electrical conductivity [S/m]	viscosity [mPa·s]
303 K, x2 = 0.2	0.0443	–
303 K, x2 = 0.4	0.0225	–
303 K, x2 = 0.6	0.011	–
303.15 K, x2 = 0.2	–	530
303.15 K, x2 = 0.6	–	2399
308 K, x2 = 0	0.107	–
308 K, x2 = 0.2	0.0605	–
308 K, x2 = 0.4	0.0317	–
308 K, x2 = 0.6	0.0163	–
308 K, x2 = 0.8	0.0085	–
308.15 K, x2 = 0	–	194
308.15 K, x2 = 0.2	–	380
308.15 K, x2 = 0.4	–	760
308.15 K, x2 = 0.6	–	1565
313 K, x2 = 0	0.137	–
313 K, x2 = 0.2	0.0801	–
313 K, x2 = 0.4	0.0438	–
313 K, x2 = 0.8	0.0128	–
313.15 K, x2 = 0	–	149
313.15 K, x2 = 0.2	–	279
313.15 K, x2 = 0.4	–	530
313.15 K, x2 = 0.6	–	1065
313.15 K, x2 = 0.8	–	2245
318 K, x2 = 0.4	0.0595	–
318 K, x2 = 0.8	0.0186	–
318.15 K, x2 = 0	–	116
318.15 K, x2 = 0.2	–	211
318.15 K, x2 = 0.4	–	390
318.15 K, x2 = 0.6	–	740
323 K, x2 = 0	0.215	–
323 K, x2 = 0.2	0.136	–
323 K, x2 = 0.4	0.0791	–
323 K, x2 = 0.8	0.0264	–
323.15 K, x2 = 0	–	92
323.15 K, x2 = 0.2	–	162
323.15 K, x2 = 0.4	–	287
323.15 K, x2 = 0.6	–	520
323.15 K, x2 = 0.8	–	1015
328 K, x2 = 0	0.263	–
328 K, x2 = 0.4	0.102	–
328 K, x2 = 0.6	0.0607	–
328 K, x2 = 0.8	0.0366	–
328.15 K, x2 = 0	–	74
328.15 K, x2 = 0.2	–	127
328.15 K, x2 = 0.4	–	216
328.15 K, x2 = 0.6	–	370
328.15 K, x2 = 0.8	–	710
333 K, x2 = 0.2	0.211	–
333 K, x2 = 0.4	0.13	–
333 K, x2 = 0.6	0.0797	–
333 K, x2 = 0.8	0.0514	–
333.15 K, x2 = 0.2	–	100
333.15 K, x2 = 0.4	–	166
333.15 K, x2 = 0.6	–	279
333.15 K, x2 = 0.8	–	500
